Columns and labels:
[1] = tested on: mice subjected to one blunt TBI, pentylenetetrazol (PTZ); test: PTZ-induced seizure susceptibility after one blunt TBI (CCCI); format: in vivo, mouse; conditions: RTG at 1 mg/kg; PTZ 35 mg/kg s.c. fifth day post-TBI
From the text: Stimulation with PTZ induced the occurrence of clonic and tonic-clonic seizures in TBI-subjected mice.

[2] = tested on: C57BL/6J mice subjected to controlled closed cortical impact (CCCI); test: Post-traumatic seizures after CCCI blunt TBI, video/EEG monitoring; format: in vivo, mouse; conditions: RTG 1.2 mg/kg i.p. 30 minutes post-TBI, video/EEG three days starting 24 hours after injury
From the text: Male and female mice were used for all experiments performed, except for GFAP, Iba1 and Fluro-Jade B histology experiments and for PSVue794 and Evans Blues imaging.
Animals were divided randomly among cohorts so that each cage included animals from all treatments.
The CCCI model was used to generate reproducible moderate blunt brain injury. This model has the advantages of producing focal contusion in which the skull remains intact. CCCI can most closely simulate blunt-head traumas resulting from falls, physical violence, or motor vehicle accidents and particularly in rodent models often produces spontaneous seizures within 24 hours.
A single trauma per mouse was employed. CCCI was delivered by a pneumatic impact device (Leica Biosystems) following a protocol previously published. A cylindrical probe of 5 mm diameter was used to deliver a calibrated impact to the skull, 1 mm depth over the right parietal cortex and a small portion of the caudal end of the right frontal cortex, at a velocity of 4.5 m/s to produce a moderate TBI. […]
To quantify seizure frequency and determine seizure susceptibility, mice of each cohort were implanted with electroencephalogram (EEG) electrodes 24 hours after CCCI or Sham. […]
Computer-assisted cortical EEGs was recorded and reviewed for the presence of seizures and epileptiform spikes. […] Detected events were visually confirmed by blinded experimenters.

[3] = tested on: mice subjected to one blunt TBI, PTZ; test: Treatment window study: PTZ-induced seizure duration after one blunt TBI; format: in vivo, mouse
Method: Mice were video-EEG monitored for 24 hours after stimulation with a normally sub-seizure threshold dose of PTZ (35 mg/kg; s.c.) administered on the fifth day post-TBI, which caused the mice to respond with prolonged seizures. […] A TBI cohort (vehicle only) was also assessed for control purposes.

sympathetic neuron = test: Action potential firing in a sympathetic neuron, current-clamp
From the text: Various currents are applied in “current-clamp” mode 44 ranging from 50 pA to −100 pA, and the resulting AP firing recorded.

c-Fos = c-Fos expression (FosTRAP mice) in hippocampal CA1 after blunt TBI; format: in vivo, mouse; conditions: tamoxifen 30 days after single blunt TBI; acute RTG treatment
From the text: Transgenic “FosTRAP” mice were used to study neuronal activity in sub-cortical regions following blunt TBI (the CCCI model as described above). These mice express the fluorescent protein, tdTomato, under the control of the neuronal promoter c-Fos, an “early intermediate gene” transcriptional factor that correlates well with heavy neuronal activity. Accordingly, whenever neurons express c-Fos, tdTomato is also expressed, allowing for an optical reporter of prior neuronal activity.
Because these transgenic mice express tdTopmato via the tamoxifen-inducible Cre/IoxP system, mice were injected (i.p.) with tamoxifen (75 mg/kg) 30 days after a single blunt TBI (i.e., CCCI), and samples were collected 5 days after injection.
Slices (200 μm) of each collected sample were infused with 4% (w/v) PFA for 10 minutes at RT, washed 5× in PBS and blocked with 8% (v/v) donkey serum (Sigma-Aldrich) diluted in PBS, 0.1% (v/v) Triton X-100 (Sigma-Aldrich), and 0.1% (v/v) Tween 20 (Thermo Fisher Scientific). […] A Nikon Eclipse FN1 microscope with 10× and 40× Plan Fluor objectives was used for detection of fluorescence. […] Cell count was obtained by non-biased automatic quantification with ImageJ. […] ROIs were determined automatically using the “analyze particles” function of ImageJ, with size set to 200-8000 and circularity set to 0.00-1.00.

mice subjected to rbTBI = test: Sleep-wake cycle analysis of EEG after rbTBI; format: in vivo, mouse; conditions: first week post-rbTBI
Method: To study the sleep-wake cycle, video/EEG records from the first 72 hour long record session (starting 2 days after the last injury) and the last 48 hour long record session (9 months after the last injury) were analyzed. To select one EEG channel from each animal/session for further analysis, we performed visual inspections of the raw local field potentials and their time-frequency decompositions (spectrograms) recorded from the three electrodes. EEG channels with signal saturation and background noise or artifacts were discarded. Then, the EEG channel with the highest percentage power at the 5-12 Hz frequency band was used to classify the sleep-wake cycle. Awake state (WK), slow wave sleep (SWS), rapid eye movement sleep REM), and transition/undetermined states (US) were classified based on two power spectral ratios, as described by Gervasoni et al., Global Forebrain Dynamics Predict Rat Behavioral States and Their Transitions, J Neurosci 24(49): 11137-11147 (2004). In brief, it first measures the relative power within fast (0.5-20/0.5-50 Hz) and slow (0.5-4.5/0.5-9 Hz) frequency bands and then generates a 2 dimensional (2D) state-space on which clusters are manually selected and associated with each state of the sleep-wake cycle.

[4] = tested on: mice subjected to one blunt TBI (CCCI); test: Dosage optimization: spontaneous myoclonic seizures after one blunt TBI (CCCI); format: in vivo, mouse; conditions: RTG 0.3, 1 and 3 mg/kg i.p. once 30 minutes post-TBI; second to fourth day
Method: An additional KCNQ2/3-specific compound, RL648_81 was also administered in the same manner (0.03 mg/kg, 0.1 mg/kg, and 0.3 mg/kg). […] To monitor the occurrence of spontaneous myoclonic seizures after, the mice were video/EEG monitored from the second to the fourth day after the TBI (72 hours total).

M-channels = test: Voltage dependence of M-channels

SMILES: CCOC(=O)Nc1ccc(NCc2ccc(F)cc2)cc1N [RTG, 2-amino-4-(4-fluorobenzylamino)-1-ethoxycarbonylaminobenzene]
- occurrence of PTZ-induced seizures [1]: completely blocked the occurrence of PTZ-induced seizures
- mice displaying post-traumatic seizures [2]: no animal treated with RTG post-TBI displayed seizures and zero
- PTZ-induced seizure duration ([3]; RTG 1 mg/kg i.p. at 1-hour post-TBI): significantly reduced induced seizure duration
- PTZ-induced seizure duration ([3]; RTG 1 mg/kg i.p. at 2 hours and 6 hours post-TBI): Lesser effects were observed
- action potential firing in response to stimuli (sympathetic neuron): Complete silencing of the neuron occurs
- c-Fos expression, hippocampal CA1 (c-Fos): significantly less c-Fos than the TBI cohort
- percentage of time in awake state (mice subjected to rbTBI): roughly equivalent to that experienced by the Sham group
- occurrence of myoclonic seizures post-TBI [4]: significantly reduced the occurrence of myoclonic seizures
- voltage dependence of M-channels (M-channels): shifting the voltage dependence of M-channels towards more negative potentials

Source: patent publication US20220354818A1, “METHODS FOR TREATING BRAIN INJURY OR COGNITIVE DYSFUNCTION BY PHARMACOLOGICAL ENHANCMENT OF M-TYPE POTASSIUM ION CURRENTS IN NEURONS” (Advanced Neuroresearch Therapeutics LLC, priority 2019, published 2022)
